Values joined by “and” are separate entries in the source; they are usually repeats but may differ in a detail not shown here. Identical values can stand only once. “Also recorded” adds a separate entry of the source.
Legend:
Format in all cases: biochemical
recombinant GBA2 = biological target: T1, recombinant GBA2 (Homo sapiens, UniProt Q9HCG7); test: cell-free 4MUG assay with recombinant GBA2; conditions: dose response, within the concentrations tested
T1 construct: purchased Abcam ab163631
T1 sequence (Q9HCG7 1-927): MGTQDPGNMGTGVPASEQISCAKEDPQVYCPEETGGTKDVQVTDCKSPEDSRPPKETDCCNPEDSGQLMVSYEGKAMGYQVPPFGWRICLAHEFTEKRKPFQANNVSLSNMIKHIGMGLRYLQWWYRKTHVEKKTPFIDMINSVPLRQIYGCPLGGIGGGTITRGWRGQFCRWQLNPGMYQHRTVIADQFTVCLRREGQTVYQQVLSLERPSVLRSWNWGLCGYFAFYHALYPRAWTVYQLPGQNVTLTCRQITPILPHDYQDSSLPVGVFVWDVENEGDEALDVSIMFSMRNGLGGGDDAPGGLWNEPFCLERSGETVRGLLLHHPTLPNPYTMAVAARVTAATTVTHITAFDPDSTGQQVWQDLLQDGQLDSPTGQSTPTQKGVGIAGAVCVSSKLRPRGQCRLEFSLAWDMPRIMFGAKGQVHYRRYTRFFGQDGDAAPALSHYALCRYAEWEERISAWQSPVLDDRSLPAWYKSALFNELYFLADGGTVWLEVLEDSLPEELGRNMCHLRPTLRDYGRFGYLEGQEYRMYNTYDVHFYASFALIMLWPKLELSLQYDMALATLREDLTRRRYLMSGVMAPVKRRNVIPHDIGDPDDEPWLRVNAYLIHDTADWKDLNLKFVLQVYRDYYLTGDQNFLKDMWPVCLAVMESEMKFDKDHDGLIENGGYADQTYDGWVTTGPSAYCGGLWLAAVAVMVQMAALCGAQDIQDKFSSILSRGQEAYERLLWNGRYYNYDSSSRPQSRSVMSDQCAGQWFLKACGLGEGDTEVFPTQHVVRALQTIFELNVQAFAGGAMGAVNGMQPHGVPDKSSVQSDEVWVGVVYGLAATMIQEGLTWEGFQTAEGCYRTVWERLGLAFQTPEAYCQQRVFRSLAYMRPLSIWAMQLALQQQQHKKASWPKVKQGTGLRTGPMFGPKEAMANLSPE
Experimental: The assay buffer consisted of 44 mM Citric Acid, 111 mM Na2HPO4, pH 5.5, 0.1% Triton X-100. […] A 10-fold intermediate solution of compound serial dilution was prepared in an assay buffer; half log dilutions were used. In a black 384-well plate (ThermoFisher, 267461) we added 5 μl of enzyme solution and 1 μl of compounds when appropriate, and incubated for 30 minutes at room temperature. 2 mM solution of 4MUG was prepared in an assay buffer. To start the reaction, 4.5 μl/well of this solution was added to the enzyme plate and was incubated for 30 minutes at 37°C. To stop the reaction, a 1M glycine solution, adjusted to pH = 10 using 1M NaOH was used. The fluorescent signal was detected using the Envision Multilabel Plate Reader (Perkin Elmer) at excitation = 355nm and emission = 450nm.

[1] = tested on: GBA1 in lysates from human cortex; test: GBA1 tissue assay, 4MUG turnover in human cortex lysates; conditions: human cortex lysate 10 μg, without sodium taurocholate
Experimental: (§1) Brain lysates were prepared by mechanical homogenization of mouse brain and human cortex in 10x weight/volume of the homogenization buffer used in the GBA1 enzymatic cell-free assay (250 mM Sucrose, 10 mM Tris pH = 7.5, 1 mM EDTA, 0.25% Triton X-100 solution, protease inhibitors, phosphatase inhibitors I and III, PMSF). Human cortex was acquired from brain banks (Tissue Solutions: http://www.tissue-solutions.com; Proteogenex: http://www.proteogenex.com). Human cortex samples were obtained from deceased aged Caucasian subjects without any diagnosis of neurodegenerative disorders. Mouse brain was obtained from 4–7 month old C57BL/6J mice. All mouse experiments were performed in accordance with the specifications of both the National Institutes of Health Guide for the Care and Use of Laboratory Animals, studies were approved by Pfizer’s Internal Animal Care and Use Committee (IACUC).
(§2) Prior to 30 min lysis on ice, human brain samples were also sonicated for 15 seconds as this step was needed to fully extract GBA1 (data not shown). Samples were then centrifuged at 20,000g for 15 minutes at 4°C. Supernatant was collected, and used for activity assays and Western blots. Protein concentration was determined using the Pierce BCA protein assay kit. Tissue lysates and pellets were stored at -80°C until use. For enzymatic activity assays, lysates were subjected only to one free-thaw cycle. Independent replicates were obtained using brain lysates from either different human subjects or different mice.
(§3) GBA1 activity in tissues was measured using the assay conditions described in the previous section. 10 μg of protein/well was used for the activity experiments, unless stated otherwise. Brain tissue lysates were diluted to 0.4 μg/ μl of protein in the same homogenization buffer, as described above. 25 μl of diluted lysate was added to the plate (Costar, 7200567). Lysates were then incubated on ice in the presence or absence of a compound for 30 minutes. 100 μl of assay buffer was then added to the plate. The same assay buffer was used as in the cell free/recombinant experiments and processed as described above.

[2] = biological target: T2, GBA1 in lysates from human cortex (Homo sapiens, UniProt P04062); test: as above; conditions: human cortex lysate 10 μg, with sodium taurocholate
T2 construct: Human cortex samples were obtained from deceased aged Caucasian subjects without any diagnosis of neurodegenerative disorders; tissue Tissue Solutions; Proteogenex; host or cells: human cortex (post mortem)
T2 sequence (P04062 40-536): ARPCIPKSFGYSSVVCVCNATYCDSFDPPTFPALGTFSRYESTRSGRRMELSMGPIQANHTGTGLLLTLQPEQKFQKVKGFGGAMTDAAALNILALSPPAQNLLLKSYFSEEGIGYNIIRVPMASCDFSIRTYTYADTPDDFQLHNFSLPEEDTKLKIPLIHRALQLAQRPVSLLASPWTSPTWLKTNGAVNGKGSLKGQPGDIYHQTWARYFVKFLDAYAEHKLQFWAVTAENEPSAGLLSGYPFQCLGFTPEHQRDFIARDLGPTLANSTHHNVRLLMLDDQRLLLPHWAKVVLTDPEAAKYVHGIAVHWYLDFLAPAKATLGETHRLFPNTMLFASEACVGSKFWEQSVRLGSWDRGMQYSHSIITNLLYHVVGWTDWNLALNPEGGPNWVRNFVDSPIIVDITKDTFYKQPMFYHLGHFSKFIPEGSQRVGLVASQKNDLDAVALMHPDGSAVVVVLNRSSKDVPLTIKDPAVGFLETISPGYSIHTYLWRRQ
Experimental: as §1, §2, §3

Compound	effect on activity of recombinant GBA2 (recombinant GBA2)	% inhibition - NaTc ([1]; 1mM)	% inhibition + NaTc ([2]; 1mM)	effect on activity of recombinant GBA2 (recombinant GBA2; listed as isofagomine)	% inhibition - NaTc ([1]; 1 μM) [%]	% inhibition - NaTc ([1]; 1 μM, listed as isofagomine)	% inhibition + NaTc ([2]; 1 μM)	inhibition at 1 µM ([2]; 1 μM, read-out: % inhibition + NaTc) [%]
O[C@H]1[C@H](O)[C@@H](O)[C@@H]2O[C@@H]2[C@@H]1O [CBE]	did not inhibit; also recorded: does not alter activity	31 ± 8% and ~ 30%	86 ± 4% and ~ 90%					
OC[C@H]1CNC[C@@H](O)[C@@H]1O [Isofagomine, isofagomine]	almost no effect			Minimal effect	27 ± 4	~ 30%	~ 90%	92 ± 2
